In general, Kd refers to the concentration at which binding is half-saturated.

Data on two molecules can be found in US11319347B2, “Peptide compound and method for producing same, composition for screening use, and method for selecting peptide compound” (FUJIFILM Corporation, priority 2017, dated 2022).

Read-outs that look alike come from different tables or passages of the source. Bounds are passed on as bounds.

For the assay, the target named is Mcl-1. The assay can be described thus: Binding of synthetic peptide to target protein by surface plasmon resonance (SPR, Biacore T200). The protocol:
Preparation of Target Protein
A plasmid construct was prepared in which a gene containing the amino acid 1-172 portion of MCL-1 was introduced into plasmid pET28a, and a His6 tag, MBP, and a TEV protease recognition sequence were attached to the N terminal side thereof. This plasmid was transformed into E. coli strain BL21 (DE3) RIPL which was then cultured at 30° C. In a case where the O.D. reached 0.8, IPTG […] was added to induce large-scale expression, followed by culturing at 16° C. overnight. The recovered bacterial cells were suspended in Lysis Buffer A (25 mmol/L Tris (pH 7.5), 150 mmol/L NaCl), and then disrupted by sonication. This was followed by centrifugation at 15 krpm for 15 minutes. The supernatant after centrifugation was purified using a Ni-NTA resin (manufactured by QIAGEN GmbH). The sample adsorbed to the Ni-NTA resin was washed with Lysis Buffer A containing 15 mmol/L imidazole and then eluted with Lysis Buffer A containing 200 mmol/L imidazole. The sample was stored at −80° C. after substitution with Lysis buffer by dialysis.
Evaluation of Binding of Synthetic Peptide to Target Protein Using Surface Plasmon Resonance (SPR)
An SPR experiment for analyzing the interaction of a synthetic peptide with Mel-1 was carried out at 25° C. using Biacore T200 (manufactured by GE Healthcare Inc.). The synthetic peptide was added to the immobilized protein, and the interaction therebetween was evaluated.
A buffer obtained by adding dimethylformamide (DMF) or dimethylsulfoxide (DMSO) to a final concentration of 1 vol % to HBS-EP+ (manufactured by GE Healthcare Inc.) was used as a running buffer. Mcl-1 was immobilized on a Biacore Sensor Chip Series S Sensor Chip CM5 (manufactured by GE Healthcare Inc.) using an Amine Coupling Kit (manufactured by GE Healthcare Inc.). In order to measure the dissociation constant (KD), each synthetic peptide was added at multiple concentrations to obtain a sensorgram of binding to immobilized Mel-1.
The analysis of the obtained sensorgram was carried out using T200 evaluation software (manufactured by GE Healthcare Inc.). Solvent correction to DMF or DMSO was carried out, and then the KD was determined by equilibrium value analysis using a sensorgram obtained by subtracting the sensorgram to a flow cell in which Mcl-1 is not immobilized.
One having a KD of less than 50 μmol/L is denoted as A, and one having a KD of 50 μmol/L or more is denoted as B.
Binding of the synthetic peptide to the target protein was evaluated in the same manner as described above.
(In general: In SPR one partner is held on a chip, and binding of the other changes the refractive index at the surface.)

Regarding `CC(C)C[C@H](NC(=O)[C@H](CC(=O)O)NC(=O)[C@H](CCCCN)NC(=O)[C@@H](NC(=O)[C@H](C)NC(=O)[C@H](C)NC(=O)[C@H]1Cc2csc(c2)C2=N[C@@H](CS2)C(=O)N[C@@H](CC(=O)O)C(=O)N[C@@H](CO)C(=O)N[C@@H](Cc2ccc(O)cc2)C(=O)N1)C(C)C)C(=O)N[C@@H](CCC(=O)O)C(=O)N[C@@H](CC(N)=O)C(=O)N[C@@H](C)C(=O)N[C@@H](Cc1csc(C#N)c1)C(N)=O` [a-6-7], the Kd (immobilized Mcl-1, Table 53 (peptides from mRNA display), read-out: Binding evaluation result (KD)) was less than 50 µM. For `CC(C)C[C@@H]1NC(=O)[C@H](C(C)C)NC(=O)[C@H](CO)NC(=O)[C@H](Cc2ccccc2)NC(=O)[C@H](C)NC(=O)[C@H](Cc2c[nH]c3ccccc23)NC(=O)[C@@H]2CSC(=N2)c2cccc(n2)C[C@H](C(N)=O)NC(=O)[C@H](Cc2c[nH]c3ccccc23)NC(=O)[C@H](C(C)C)NC(=O)[C@@H]2CCCN2C(=O)[C@H](Cc2ccccc2)NC(=O)[C@H](Cc2c[nH]c3ccccc23)NC(=O)[C@@H]2CCCN2C(=O)[C@H](Cc2c[nH]c3ccccc23)NC1=O` [Cyclic peptide a-5-2], the Kd (25° C., immobilized Mcl-1, Table 51, read-out: Binding evaluation result (KD)) was no less than 50 µM.
